The assay concerns the target IKZF2 (Homo sapiens (Human), UniProt Q96SW2+Q9UKS7). The assay is described as follows: IKZF2 HiBiT Assay (Jurkat-IKZF2-HiBiT cell line). Particulars: Jurkat-IKZF2-HiBiT cells, 24 hours; for DC50: read-out: HiBit assay degradation analysis DC50; for Dmax: read-out: HiBit assay degradation analysis Dmax. Type of assay: cell-based. How it is done: Degradation of IKZF2 protein is determined by IKZF2 HiBiT assay using the Jurkat-IKZF2-HiBiT (Promega) cell line. Briefly, cells are seeded in culture medium. Compounds are serially diluted in culture medium, and certain volume of the diluted compounds is added to the appropriate well of the plate. After the addition of compounds, the cells are incubated. At the end of treatment, Nano-Glo HiBiT Lytic Detection Reagent (Promega) is added to each well, and then the plates are incubated at room temperature for a certain time period. The luminescent signal is measured using a CALRIOstar plate reader (BMG Labtech). The readings are normalized to the DMSO-treated cells and the IC50 is calculated by nonlinear regression (four parameters sigmoid fitted with variable slope, least squares fit, and no constraint) analysis using the GraphPad Prism 8 software.
Degradation of IKZF2 protein was determined by IKZF2 HiBiT assay using the Jurkat-IKZF2-HiBiT (Promega) cell line. […] Compounds were serially diluted in culture medium, and 20 μl of the diluted compounds were added to the appropriate wells of the plate. After the addition of compounds, the cells were incubated at 37° C. in an atmosphere of 5% CO2 for 24 hours. At the end of treatment, 40 ul of Nano-Glo HiBiT Lytic Detection Reagent (Promega) was added to each well, and then the plates were incubated at room temperature for 10-20 minutes. The luminescent signal was measured using a CALRIOstar plate reader (BMG Labtech). The readings were normalized to the DMSO-treated cells and the IC50 was calculated by nonlinear regression (four parameters sigmoid fitted with variable slope, least squares fit, and no constraint) analysis using the GraphPad Prism 8 software.
A general note: HiBiT is a short tag that completes a luciferase, so light tracks the accessible tagged protein.

IKZF2, sequence (Q9UKS7 whole entry): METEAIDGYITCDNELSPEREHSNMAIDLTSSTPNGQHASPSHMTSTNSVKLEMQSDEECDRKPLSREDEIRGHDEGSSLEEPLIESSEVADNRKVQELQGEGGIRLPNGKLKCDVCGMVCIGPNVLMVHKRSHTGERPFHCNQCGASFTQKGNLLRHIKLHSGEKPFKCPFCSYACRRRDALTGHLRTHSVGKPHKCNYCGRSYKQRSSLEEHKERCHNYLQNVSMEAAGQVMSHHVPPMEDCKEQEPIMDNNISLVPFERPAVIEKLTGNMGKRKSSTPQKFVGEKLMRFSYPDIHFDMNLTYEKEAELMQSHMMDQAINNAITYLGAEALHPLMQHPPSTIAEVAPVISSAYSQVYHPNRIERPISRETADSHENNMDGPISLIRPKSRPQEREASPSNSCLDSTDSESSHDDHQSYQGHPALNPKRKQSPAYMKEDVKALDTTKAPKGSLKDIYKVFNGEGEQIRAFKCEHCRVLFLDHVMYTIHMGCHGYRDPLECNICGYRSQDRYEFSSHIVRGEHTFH
IKZF2, sequence (Q96SW2 whole entry): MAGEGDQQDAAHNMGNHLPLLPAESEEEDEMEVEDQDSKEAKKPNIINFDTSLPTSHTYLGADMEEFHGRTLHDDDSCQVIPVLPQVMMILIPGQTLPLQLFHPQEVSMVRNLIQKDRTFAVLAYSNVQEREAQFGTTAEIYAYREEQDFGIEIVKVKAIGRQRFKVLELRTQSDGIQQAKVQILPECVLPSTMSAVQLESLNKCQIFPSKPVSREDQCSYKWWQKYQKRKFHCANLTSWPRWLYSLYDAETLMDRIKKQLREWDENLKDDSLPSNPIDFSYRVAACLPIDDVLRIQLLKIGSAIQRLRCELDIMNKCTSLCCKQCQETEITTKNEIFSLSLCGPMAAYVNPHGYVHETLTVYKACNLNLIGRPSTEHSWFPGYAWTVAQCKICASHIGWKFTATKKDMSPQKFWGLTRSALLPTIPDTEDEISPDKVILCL
IKZF2, sequence (Q16531 whole entry partner): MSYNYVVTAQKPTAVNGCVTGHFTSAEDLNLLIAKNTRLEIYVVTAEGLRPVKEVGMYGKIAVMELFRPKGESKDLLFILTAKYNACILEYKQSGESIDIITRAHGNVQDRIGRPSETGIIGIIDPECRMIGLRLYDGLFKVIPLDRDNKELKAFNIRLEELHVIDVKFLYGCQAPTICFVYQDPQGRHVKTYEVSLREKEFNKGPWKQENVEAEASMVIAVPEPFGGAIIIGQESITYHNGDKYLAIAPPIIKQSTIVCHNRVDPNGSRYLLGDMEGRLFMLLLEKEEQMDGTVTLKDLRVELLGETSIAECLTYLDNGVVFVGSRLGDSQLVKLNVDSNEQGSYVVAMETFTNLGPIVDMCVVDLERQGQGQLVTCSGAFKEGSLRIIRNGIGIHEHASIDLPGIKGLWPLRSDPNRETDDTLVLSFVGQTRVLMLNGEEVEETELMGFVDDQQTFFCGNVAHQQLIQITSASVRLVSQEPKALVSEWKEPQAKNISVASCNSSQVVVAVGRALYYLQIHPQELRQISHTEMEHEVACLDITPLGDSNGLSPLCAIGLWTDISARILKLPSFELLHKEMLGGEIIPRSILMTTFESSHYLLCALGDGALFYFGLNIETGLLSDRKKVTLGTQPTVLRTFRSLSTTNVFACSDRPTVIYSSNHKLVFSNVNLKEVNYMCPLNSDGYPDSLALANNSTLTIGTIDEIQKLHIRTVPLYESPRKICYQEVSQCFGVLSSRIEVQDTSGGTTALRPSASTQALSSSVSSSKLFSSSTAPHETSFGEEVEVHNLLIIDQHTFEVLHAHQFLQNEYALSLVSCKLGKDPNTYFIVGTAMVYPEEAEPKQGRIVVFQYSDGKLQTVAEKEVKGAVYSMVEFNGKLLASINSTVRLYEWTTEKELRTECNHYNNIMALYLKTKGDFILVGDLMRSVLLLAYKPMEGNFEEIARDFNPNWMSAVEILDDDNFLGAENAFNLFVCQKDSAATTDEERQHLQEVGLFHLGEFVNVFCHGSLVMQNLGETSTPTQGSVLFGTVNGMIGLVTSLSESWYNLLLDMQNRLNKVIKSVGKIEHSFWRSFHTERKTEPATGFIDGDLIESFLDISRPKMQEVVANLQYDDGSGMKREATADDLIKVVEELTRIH

As to `COc1ncc(CN2CCC3(CC2)COc2c3ccc3c2CN(C2CCC(=O)NC2=O)C3=O)cn1` (stereo not drawn) [Compound A26, 3-(1′-((2-methoxypyrimidin-5-yl)methyl)-6-oxo-6,8-dihydro-2H,7H-spiro[furo[2,3-e]isoindole-3,4′-piperidin]-7-yl)piperidine-2,6-dione], the half-maximal degradation concentration (DC50) (commonly the concentration giving 50% degradation) was over 500 nM and the Dmax (commonly the largest share of the target that was removed) is under 40%.

For the molecule `O=C1CCC(N2Cc3c(ccc4c3OCC43CCN(Cc4cc(F)cc(F)c4)CC3)C2=O)C(=O)N1` (stereo not drawn) [Compound A28, 3-(1′-(3,5-difluorobenzyl)-6-oxo-6,8-dihydro-2H,7H-spiro[furo[2,3-e]isoindole-3,4′-piperidin]-7-yl)piperidine-2,6-dione], the DC50 is over 500 nM and the Dmax lay in the range of 40 to 60%.

`CC(F)(F)c1ccc(CN2CCC3(CC2)COc2c3ccc3c2CN(C2CCC(=O)NC2=O)C3=O)cc1` (stereo not drawn) [Compound A30, 3-(1′-(4-(1,1-difluoroethyl)benzyl)-6-oxo-6,8-dihydro-2H,7H-spiro[furo[2,3-e]isoindole-3,4′-piperidin]-7-yl)piperidine-2,6-dione]: the DC50 was over 500 nM and the Dmax is under 40%.

Consider `O=C1CCC(N2Cc3c(ccc4c3OCC43CCN(Cc4ccc(Cl)cc4)CC3)C2=O)C(=O)N1` (stereo not drawn) [Compound A32], for which the DC50 was over 500 nM and the Dmax is under 40%.

Turning to `N#Cc1ccc(CN2CCC3(CC2)COc2c3ccc3c2CN(C2CCC(=O)NC2=O)C3=O)cc1Cl` (stereo not drawn) [Compound A33, 2-chloro-4-((7-(2,6-dioxopiperidin-3-yl)-6-oxo-7,8-dihydro-2H,6H-spiro[furo[2,3-e]isoindole-3,4′-piperidin]-1′-yl)methyl)benzonitrile], the DC50 was over 500 nM and the Dmax fell in the range of 40 to 60%.

As to `O=C1CCC(N2Cc3c(ccc4c3OCC43CCN(Cc4ccc5ccccc5c4)CC3)C2=O)C(=O)N1` (stereo not drawn) [Compound A34, 3-(1′-(naphthalen-2-ylmethyl)-6-oxo-6,8-dihydro-2H,7H-spiro[furo[2,3-e]isoindole-3,4′-piperidin]-7-yl)piperidine-2,6-dione], the DC50 is under 50 nM and the Dmax was in the range of 60 to 80%.

Take `O=C1CCC(N2Cc3c(ccc4c3OCC43CCN(Cc4cccc5c(F)cccc45)CC3)C2=O)C(=O)N1` (stereo not drawn) [Compound A35, 3-(1′-((5-fluoronaphthalen-1-yl)methyl)-6-oxo-6,8-dihydro-2H,7H-spiro[furo[2,3-e]isoindole-3,4′-piperidin]-7-yl)piperidine-2,6-dione]: the DC50 is under 50 nM and the Dmax was over 80%.

Regarding `O=C1CCC(N2Cc3c(ccc4c3OCC43CCN(Cc4ccc(F)c5ccccc45)CC3)C2=O)C(=O)N1` (stereo not drawn) [Compound A36, 3-(1′-((4-fluoronaphthalen-1-yl)methyl)-6-oxo-6,8-dihydro-2H,7H-spiro[furo[2,3-e]isoindole-3,4′-piperidin]-7-yl)piperidine-2,6-dione], the DC50 lay within 50 to 200 nM and the Dmax is 60 to 80%.

For the molecule `O=C1CCC(N2Cc3c(ccc4c3OCC43CCN(Cc4ccc(Cl)c5ccccc45)CC3)C2=O)C(=O)N1` (stereo not drawn) [Compound A37, 3-(1′-((4-chloronaphthalen-1-yl)methyl)-6-oxo-6,8-dihydro-2H,7H-spiro[furo[2,3-e]isoindole-3,4′-piperidin]-7-yl)piperidine-2,6-dione], the DC50 is over 500 nM and the Dmax fell in the range of 40 to 60%.

With `O=C1CCC(N2Cc3c(ccc4c3OCC43CCN(Cc4cccc5ncccc45)CC3)C2=O)C(=O)N1` (stereo not drawn) [Compound A38, 3-(6-oxo-1′-(quinolin-5-ylmethyl)-6,8-dihydro-2H,7H-spiro[furo[2,3-e]isoindole-3,4′-piperidin]-7-yl)piperidine-2,6-dione], the DC50 was in the range of 50 to 200 nM and the Dmax fell in the range of 60 to 80%.

Take `O=C1CCC(N2Cc3c(ccc4c3OCC43CCN(Cc4cccc5cnccc45)CC3)C2=O)C(=O)N1` (stereo not drawn) [Compound A39, 3-(1′-(isoquinolin-5-ylmethyl)-6-oxo-6,8-dihydro-2H,7H-spiro[furo[2,3-e]isoindole-3,4′-piperidin]-7-yl)piperidine-2,6-dione]: the DC50 is under 50 nM and the Dmax was 60 to 80%.

Consider `O=C1CCC(N2Cc3c(ccc4c3OCC43CCN(Cc4cccc5ccncc45)CC3)C2=O)C(=O)N1` (stereo not drawn) [Compound A40, 3-(1′-(isoquinolin-8-ylmethyl)-6-oxo-6,8-dihydro-2H,7H-spiro[furo[2,3-e]isoindole-3,4′-piperidin]-7-yl)piperidine-2,6-dione], for which the DC50 was 50 to 200 nM and the Dmax lay in the range of 60 to 80%.

As for `O=C1CCC(N2Cc3c(ccc4c3OCC43CCN(Cc4cccc5cccnc45)CC3)C2=O)C(=O)N1` (stereo not drawn) [Compound A41, 3-(6-oxo-1′-(quinolin-8-ylmethyl)-6,8-dihydro-2H,7H-spiro[furo[2,3-e]isoindole-3,4′-piperidin]-7-yl)piperidine-2,6-dione], the half-maximal degradation concentration (DC50) is 50 to 200 nM and the Dmax lay within 60 to 80%.

Consider `O=C1CCC(N2Cc3c(ccc4c3OCC43CCN(Cc4nccc5ccccc45)CC3)C2=O)C(=O)N1` (stereo not drawn) [Compound A42, 3-(1′-(isoquinolin-1-ylmethyl)-6-oxo-6,8-dihydro-2H,7H-spiro[furo[2,3-e]isoindole-3,4′-piperidin]-7-yl)piperidine-2,6-dione], for which the DC50 was over 500 nM and the Dmax is under 40%.

Regarding `O=C1CCC(N2Cc3c(ccc4c3OCC43CCN(Cc4cncc5ccccc45)CC3)C2=O)C(=O)N1` (stereo not drawn) [Compound A43, 3-(1′-(isoquinolin-4-ylmethyl)-6-oxo-6,8-dihydro-2H,7H-spiro[furo[2,3-e]isoindole-3,4′-piperidin]-7-yl)piperidine-2,6-dione], the DC50 was over 500 nM and the Dmax fell in the range of 40 to 60%.

`O=C1CCC(N2Cc3c(ccc4c3OCC43CCN(Cc4ccnc5ccccc45)CC3)C2=O)C(=O)N1` (stereo not drawn) [Compound A44, 3-(6-oxo-1′-(quinolin-4-ylmethyl)-6,8-dihydro-2H,7H-spiro[furo[2,3-e]isoindole-3,4′-piperidin]-7-yl)piperidine-2,6-dione]: the DC50 was over 500 nM and the Dmax was under 40%.

Turning to `O=C1CCC(N2Cc3c(ccc4c3OCC43CCN(Cc4ccc5ccncc5c4)CC3)C2=O)C(=O)N1` (stereo not drawn) [Compound A45], the DC50 lay in the range of 200 to 500 nM and the Dmax lay in the range of 40 to 60%.

In the case of `O=C1CCC(N2Cc3c(ccc4c3OCC43CCN(Cc4ccc5ncccc5c4)CC3)C2=O)C(=O)N1` (stereo not drawn) [Compound A46, 3-(6-oxo-1′-(quinolin-6-ylmethyl)-6,8-dihydro-2H,7H-spiro[furo[2,3-e]isoindole-3,4′-piperidin]-7-yl)piperidine-2,6-dione], the DC50 lay in the range of 200 to 500 nM and the Dmax lay in the range of 40 to 60%.

On to `O=C1CCC(N2Cc3c(ccc4c3OCC43CCN(Cc4cccc5nccnc45)CC3)C2=O)C(=O)N1` (stereo not drawn) [Compound A47, 3-(6-oxo-1′-(quinoxalin-5-ylmethyl)-6,8-dihydro-2H,7H-spiro[furo[2,3-e]isoindole-3,4′-piperidin]-7-yl)piperidine-2,6-dione], for which the DC50 is over 500 nM and the Dmax lay within 40 to 60%.

On to `O=C1CCC(N2Cc3c(ccc4c3OCC43CCN(Cc4ccc5nccnc5c4)CC3)C2=O)C(=O)N1` (stereo not drawn) [Compound A48, 3-(6-oxo-1′-(quinoxalin-6-ylmethyl)-6,8-dihydro-2H,7H-spiro[furo[2,3-e]isoindole-3,4′-piperidin]-7-yl)piperidine-2,6-dione], for which the DC50 is over 500 nM and the Dmax is under 40%.

As for `O=C1CCC(N2Cc3c(ccc4c3OCC43CCN(Cc4cccc5cccc(F)c45)CC3)C2=O)C(=O)N1` (stereo not drawn) [Compound A50, 3-(1′-((8-fluoronaphthalen-1-yl)methyl)-6-oxo-6,8-dihydro-2H,7H-spiro[furo[2,3-e]isoindole-3,4′-piperidin]-7-yl)piperidine-2,6-dione], the half-maximal degradation concentration (DC50) is under 50 nM and the Dmax lay in the range of 60 to 80%.

`Cn1ncc2cccc(CN3CCC4(CC3)COc3c4ccc4c3CN(C3CCC(=O)NC3=O)C4=O)c21` (stereo not drawn) [Compound A53, 3-(1′-((1-methyl-1H-indazol-7-yl)methyl)-6-oxo-6,8-dihydro-2H,7H-spiro[furo[2,3-e]isoindole-3,4′-piperidin]-7-yl)piperidine-2,6-dione]: the half-maximal degradation concentration (DC50) was over 500 nM and the Dmax fell in the range of 40 to 60%.

`O=C1CCC(N2Cc3c(ccc4c3OCC43CCN(Cc4ccc5scnc5c4)CC3)C2=O)C(=O)N1` (stereo not drawn) [Compound A54, 3-(1′-(benzo[d]thiazol-5-ylmethyl)-6-oxo-6,8-dihydro-2H,7H-spiro[furo[2,3-e]isoindole-3,4′-piperidin]-7-yl)piperidine-2,6-dione]: the DC50 lay in the range of 50 to 200 nM and the Dmax lay within 40 to 60%.

On to `Cn1ncc2ccc(CN3CCC4(CC3)COc3c4ccc4c3CN(C3CCC(=O)NC3=O)C4=O)cc21` (stereo not drawn) [Compound A57, 3-(1′-((1-methyl-1H-indazol-6-yl)methyl)-6-oxo-6,8-dihydro-2H,7H-spiro[furo[2,3-e]isoindole-3,4′-piperidin]-7-yl)piperidine-2,6-dione], for which the half-maximal degradation concentration (DC50) lay within 50 to 200 nM and the Dmax is 60 to 80%.

The record behind these values is patent US20250215012A1, “IKZF2 DEGRADERS AND USES THEREOF” (REGENTS OF THE UNIVERSITY OF MICHIGAN, priority 2022, published 2025).
